The values that follow come from patent US5607962A, “Substituted indole derivatives” (Bayer Aktiengesellschaft, priority 1995, dated 1997).

SMILES strings stand for the structures. pIC50: −log10 of the molar value.

The test system of the experiment is smooth muscle cells. The experiment is described as follows: Inhibition of the proliferation of smooth muscle cells (3H-thymidine incorporation). It counts as cell-based, pigs. The conditions noted are these: Sus scrofa; smooth muscle cells from pig aortas; half-maximum inhibition of 3H-thymidine incorporation produced by 10% FCS. As to the method:
Investigation of the inhibition of the proliferation of smooth muscle cells by the compounds according to the invention
To determine the antiproliferative action of the compounds, smooth muscle cells are used which have been obtained from the aortas of pigs by the media explant technique [R. Ross, J. Cell. Biol. 50, 172, 1971]. The cells are inoculated into suitable culture dishes, as a role 96-hole plates, and cultured at 37° C. for 2-3 days in medium 199 with 7.5% FCS and 7.5% NCS, 2 mM L-glutamine and 15 mM HEPES, pH 7.4 in 5% CO2. The cells are then synchronized by withdrawal of serum for 2-3 days and then stimulated to growth using serum or other factors. At the same time, test compounds are added. […] To determine the IC50 values, the active compound concentration is calculated at which sequential dilution of the active compound causes half-maximum inhibition of the thymidine incorporation produced by 10% FCS.
Background: Incorporation of labelled thymidine or its analogues reports DNA synthesis.

What is called pIC50 is the negative decadic logarithm of the IC50, by convention in mol/L. A high value points to a low IC50. The molecule `NC(=O)C(NC(=O)[C@@H]1CCCC[C@H]1c1ccc(Cc2c(-c3ccccc3)[nH]c3ccccc23)cc1)c1ccccc1` (stereo partly drawn) [Example 3, trans-2-[4-(2-Phenylindol-3-yl-methyl)phenyl]-cyclohexane-1-carbonyl(phenylglycinamido)amide] showed a negative-log IC50 (pIC50) of 10.70.
